Laboratory results from patent US20070135398A1, “Process for the preparation of ciclesonide” (priority 2005, published 2007).

Key:
[1] = Decomposition in ethanol-water mixture; assay type: physicochemical; conditions: 20 mg in 6 mL ethanol and 4 mL purified water, 80° C., 64 hours
Protocol: The HPLC analysis was carried out using the following equipment and methodology. The column was a Prodigy ODS, 220×4.6 mm, 5 μm. The eluent was ethanol/water 50/50 at a flow rate of 2 mL/min. The detector was an UV-DAD at 242 nm.
Decomposition in Ethanol-Water Mixture
20 mg ciclesonide were dissolved in 6 mL ethanol and 4 mL purified water and the solution was kept at 80° C. for 64 hours.

[2] = ester prodrug; Current Opinion in Investigational Drugs 2002, 3(1) 78-83; cited from earlier work

SMILES: CC(C)C(=O)OCC(=O)[C@@]12O[C@H](C3CCCCC3)O[C@@H]1C[C@H]1[C@@H]3CCC4=CC(=O)C=C[C@]4(C)[C@H]3[C@@H](O)C[C@@]12C [ciclesonide, pregna-1,4-diene-3,20-dione, 16,17-[[(R)-cyclohexylmethylene]bis(oxy)]-11-hydroxy-21-(2-methyl-1-oxopropoxy)-(11β,16α)-(9CI)]
- formation of the corresponding 21-hydroxy analogue [1]: 3.99%
- purity after storage in ethanol/water solution ([1]; initial purity 99.74%): 95.34%
- oral bioavailability [2]: essentially devoid of oral bioavailability
